Earlier results, collected in US10927398B2, “Compositions for CYP450 phenotyping using saliva samples” (Concordia University, Inc., priority 2015, dated 2021).
Read-outs that look alike come from different tables or passages of the source.

How the values were obtained:
[1] = cited from earlier work
[2] = cited from earlier work; remark: listed apart in the source
[3] = test system: plasma protein; conditions: cited from earlier work
[4] = Table of Exemplary Drugs, CYP3A4
[5] = Table of Exemplary Drugs, CYP2D6
[6] = Table of Exemplary Drugs, CYP1A2
[7] = Table of Exemplary Drugs, CYP2C19
[8] = Table of Exemplary Drugs, CYP2C9

## C[C@H](/C=C/[C@H](C)C(C)(C)O)[C@H]1CC[C@H]2/C(=C/C=C3C[C@@H](O)C[C@H](O)C3)CCC[C@]12C [Paricalcitol (Zemplar), Paricalcitol]
[1]; [4]
  ORAL BIOAVAILABILITY: 72%
[2]; [4]
  HALF-LIFE: 5 to 7 h

## OC(CNCC(O)C1CCc2cc(F)ccc2O1)C1CCc2cc(F)ccc2O1 (stereo not shown) [Nebivolol]
[1]; [5]
  ORAL BIOAVAILABILITY: 12-96%
[3]; [5]
  PLASMA PROTEIN BINDING: 98%
[2]; [5]
  HALF-LIFE: 12 to 19 h

## O=C(O[C@H]1CN2CCC1CC2)N1CCc2ccccc2[C@@H]1c1ccccc1 [Solifenacin (Vesicare), Solifenacin]
[1]; in vivo, po
  ORAL BIOAVAILABILITY: 90%
[3]; plasma
  PLASMA PROTEIN BINDING: 98%
[2]; in vivo
  HALF-LIFE: 45 to 68 h

## CN(C)CCc1c[nH]c2ccc(C[C@H]3COC(=O)N3)cc12 [Zolmitriptan]
[1]; [6]
  ORAL BIOAVAILABILITY: ~40%
[3]; [6]
  PLASMA PROTEIN BINDING: 25%

## CN1CCN(C(=O)OC2c3nccnc3C(=O)N2c2ccc(Cl)cn2)CC1 (stereo not shown) [Zopiclone (Imovane), Zopiclone]
[1]; [4]
  ORAL BIOAVAILABILITY: 80%
[3]; [4]
  PLASMA PROTEIN BINDING: 45%
[2]; [4]
  HALF-LIFE: 3.5 to 6.5 h

## Clc1ccc2nsnc2c1NC1=NCCN1 [Tizanidine]
[1]; [6]
  ORAL BIOAVAILABILITY: 40%
[3]; [6]
  PLASMA PROTEIN BINDING: 30%

## CN(C)CCCN1c2ccccc2CCc2ccccc21 [Imipramine]
[1]; [6]
  ORAL BIOAVAILABILITY: 22-77%
[1]; [7]
  ORAL BIOAVAILABILITY: 94-96%
[1]; [5]
  ORAL BIOAVAILABILITY: 94-96%
[3]; [6]
  PLASMA PROTEIN BINDING: 60-96% ^
[3]; [7]
  PLASMA PROTEIN BINDING: 89%
[3]; [5]
  PLASMA PROTEIN BINDING: 89%

## CC(C)Cc1ccc(C(C)C(=O)O)cc1 (stereo not shown) [Ibuprofen]
[1]; [8]
  ORAL BIOAVAILABILITY: 87-100%

## OCCN1CCN(CCCN2c3ccccc3Sc3ccc(Cl)cc32)CC1 [Perphenazine]
[1]; [5]
  ORAL BIOAVAILABILITY: 20%
[2]; [5]
  HALF-LIFE: 9 to 12 h

## C=C[C@H]1C[N@@]2CC[C@H]1C[C@H]2[C@H](O)c1ccnc2ccc(OC)cc12 [Quinine]
[1]; [4]
  ORAL BIOAVAILABILITY: 76-88%

## CC1(C)O[C@@H]2[C@@H](CO[C@@]3(COS(N)(=O)=O)OC(C)(C)O[C@@H]23)O1 [Topiramate (Topamax), Topiramate]
[1]; [4]
  ORAL BIOAVAILABILITY: 80%
[3]; [4]
  PLASMA PROTEIN BINDING: 15-41% ^

## C=C[C@H]1C[N@@]2CC[C@H]1C[C@@H]2[C@@H](O)c1ccnc2ccc(OC)cc12 [Quinidine]
[1]; [4]
  ORAL BIOAVAILABILITY: 70-80%
[3]; [4]
  PLASMA PROTEIN BINDING: 50-88% ^

## CC(C)(C)NC[C@H](O)COc1nsnc1N1CCOCC1 [Timolol]
[1]; [5]
  ORAL BIOAVAILABILITY: 90%
[3]; [5]
  PLASMA PROTEIN BINDING: <10%

## CCOC(=O)C1=C(C)NC(C)=C(C(=O)OC)C1c1cccc(Cl)c1Cl (stereo not shown) [Felodipine (Plendil), Felodipine]
[1]; [4]
  ORAL BIOAVAILABILITY: 13-20%

## COc1ccc2c(c1)N(C[C@H](C)CN(C)C)c1ccccc1S2 [Levomepromazine]
[1]; [5]
  ORAL BIOAVAILABILITY: 50-60%
[2]; [5]
  HALF-LIFE: 15 h

## COc1cc2ncnc(Nc3ccc(F)c(Cl)c3)c2cc1OCCCN1CCOCC1 [Gefitinib (Iressa), Gefitinib]
[1]; [4]
  ORAL BIOAVAILABILITY: 60%

## CC(N)Cc1ccccc1 (stereo not shown) [Amphetamine]
[1]; in vivo, po
  ORAL BIOAVAILABILITY: 100+%

## Nc1ccc(S(=O)(=O)c2ccc(N)cc2)cc1 [Dapsone (Avlosulfon), Dapsone]
[1]; [4]
  ORAL BIOAVAILABILITY: 86-104%
[3]; [4]
  PLASMA PROTEIN BINDING: 70-90% ^

## CN(C)C(=O)C(CCN1CCC(O)(c2ccc(Cl)cc2)CC1)(c1ccccc1)c1ccccc1 [Loperamide (Imodium), Loperamide]
[1]; [4]
  ORAL BIOAVAILABILITY: 0.30%
[2]; [4]
  HALF-LIFE: 9 to 14 h

## O=C1Cc2cc(CCN3CCN(c4nsc5ccccc45)CC3)c(Cl)cc2N1 [Ziprasidone (Geodon), Ziprasidone]
[1]; [4]
  ORAL BIOAVAILABILITY: 60%
[2]; [4]
  HALF-LIFE: 7 h

## CC(C)(C)NC(=O)[C@H]1CC[C@H]2[C@@H]3CC[C@H]4NC(=O)C=C[C@]4(C)[C@H]3CC[C@]12C [Finasteride (Proscar), Finasteride]
[1]; [4]
  ORAL BIOAVAILABILITY: 65%
[2]; [4]
  HALF-LIFE: 4.5 h

## OCCOCCN1CCN(C2=Nc3ccccc3Sc3ccccc32)CC1 [Quetiapine (Seroquel), Quetiapine]
[3]; [4]
  PLASMA PROTEIN BINDING: 83%
[2]; [4]
  HALF-LIFE: 6 to 7 h

## CCOC(=O)C1=C(COCCN)NC(C)=C(C(=O)OC)C1c1ccccc1Cl (stereo not shown) [Amlodipine (Norvasc), Amlodipine]
[1]; [4]
  ORAL BIOAVAILABILITY: 64-90%

## CC(C)CN(C[C@@H](O)[C@H](Cc1ccccc1)NC(=O)O[C@H]1CO[C@H]2OCC[C@H]21)S(=O)(=O)c1ccc(N)cc1 [Darunavir (Prezista), Darunavir]
[1]; [4]
  ORAL BIOAVAILABILITY: 37%

## O=C(O)Cc1ccccc1Nc1c(Cl)cccc1Cl [Diclofenac]
[1]; [8]
  ORAL BIOAVAILABILITY: 50%
[2]; [8]
  HALF-LIFE: 1.9 to 2.2 h

## O=P1(N(CCCl)CCCl)NCCCO1 (stereo not shown) [Cyclophosphamide]
[3]; plasma
  PLASMA PROTEIN BINDING: >60%
[2]; in vivo
  HALF-LIFE: 3 to 12 h

## Cc1cc2c(s1)Nc1ccccc1N=C2N1CCN(C)CC1 [Olanzapine]
[1]; [6]
  ORAL BIOAVAILABILITY: 87%
[2]; [6]
  HALF-LIFE: 21 to 54 h

## CCN(CC)CCCC(C)Nc1c2ccc(Cl)cc2nc2ccc(OC)cc12 (stereo not shown) [Quinacrine]
[3]; [4]
  PLASMA PROTEIN BINDING: 80-90% ^
[2]; [4]
  HALF-LIFE: 120 h

## COc1ccc(C(CN(C)C)C2(O)CCCCC2)cc1 (stereo not shown) [Venlafaxine]
[1]; [5]
  ORAL BIOAVAILABILITY: 12.6%
[3]; [5]
  PLASMA PROTEIN BINDING: 27-30% ^

## C[C@H]1C[C@@H]2[C@H]([C@@H](O)C[C@@]3(C)[C@H]2CC[C@]3(O)C(=O)CO)[C@@]2(C)C=CC(=O)C=C12 [Methylprednisolone]
[3]; [4]
  PLASMA PROTEIN BINDING: 78%
[2]; [4]
  HALF-LIFE: 2 to 3 h

## CN1C[C@H](C(=O)N[C@]2(C)O[C@@]3(O)[C@@H]4CCCN4C(=O)[C@H](Cc4ccccc4)N3C2=O)C=C2c3cccc4[nH]cc(c34)C[C@H]21 [Ergotamine (Ergomar), Ergotamine]
[1]; in vivo, po
  ORAL BIOAVAILABILITY: <5%
[2]; in vivo
  HALF-LIFE: 1.5 to 2.5 h

## COc1cc2c(c(OC)c1OC)-c1ccc(OC)c(=O)cc1[C@@H](NC(C)=O)CC2 [Colchicine]
[1]; [4]
  ORAL BIOAVAILABILITY: 45%
[2]; [4]
  HALF-LIFE: 26.6 to 31.2 h

## COc1ccc2[nH]cc(CCNC(C)=O)c2c1 [Melatonin]
[1]; [6]
  ORAL BIOAVAILABILITY: 3-76%
[2]; [6]
  HALF-LIFE: 0.583 to 0.833 h

## CN1CCN2c3ncccc3Cc3ccccc3C2C1 (stereo not shown) [Mirtazapine]
[1]; [5]
  ORAL BIOAVAILABILITY: 50%

## CC(C)COCC(CN(Cc1ccccc1)c1ccccc1)N1CCCC1 (stereo not shown) [Bepridil (Vascor), Bepridil]
[1]; [4]
  ORAL BIOAVAILABILITY: 60%
[2]; [4]
  HALF-LIFE: 42 h

## CC(C)(C)NC(=O)[C@@H]1C[C@@H]2CCCC[C@@H]2CN1C[C@@H](O)[C@H](Cc1ccccc1)NC(=O)[C@H](CC(N)=O)NC(=O)c1ccc2ccccc2n1 [Saquinavir (Invirase), Saquinavir]
[3]; [4]
  PLASMA PROTEIN BINDING: 98%
[2]; [4]
  HALF-LIFE: 13 h

## COc1cc([C@@H]2c3cc4c(cc3[C@@H](O[C@@H]3O[C@@H]5CO[C@@H](c6cccs6)O[C@H]5[C@H](O)[C@H]3O)[C@H]3COC(=O)[C@H]23)OCO4)cc(OC)c1O [Teniposide]
[3]; [7]
  PLASMA PROTEIN BINDING: >99%
[3]; [4]
  PLASMA PROTEIN BINDING: >99%
[2]; [7]
  HALF-LIFE: 5 h
[2]; [4]
  HALF-LIFE: 5 h

## CCC1(C)CC(=O)NC1=O (stereo not shown) [Ethosuximide (Zarontin), Ethosuximide]
[1]; [4]
  ORAL BIOAVAILABILITY: 93%
[2]; [4]
  HALF-LIFE: 25 to 60 h

## CS(=O)(=O)CCNCc1ccc(-c2ccc3ncnc(Nc4ccc(OCc5cccc(F)c5)c(Cl)c4)c3c2)o1 [Lapatinib (Tykerb), Lapatinib]
[3]; [4]
  PLASMA PROTEIN BINDING: >99%
[2]; [4]
  HALF-LIFE: 24 h

## CC(C)NCC(O)COc1cccc2ccccc12 (stereo not shown) [Propranolol]
[1]; [6]
  ORAL BIOAVAILABILITY: 100%
[1]; [7]
  ORAL BIOAVAILABILITY: 30-70%
[1]; [5]
  ORAL BIOAVAILABILITY: 30-70%
[2]; [6]
  HALF-LIFE: 4 h
[2]; [7]
  HALF-LIFE: 3 to 6 h
[2]; [5]
  HALF-LIFE: 3 to 6 h
